Measured values from ChEMBL document CHEMBL5465560, “Selectivity Literature for EUbOPEN Chemogenomic Library” (2024).
Blank lines part the entries; values can stand above or below the molecule they belong to.

How the values were obtained:
[1] = molecular target: Substance-P receptor (Homo sapiens) (UniProt P25103); test: Selectivity interaction (Panel of kinases, GPCRs, ion channels and transporters (enzymatic assay)) EUB0000266bCl TACR1
Misshapen-like kinase 1 = Misshapen-like kinase 1 (Homo sapiens, UniProt Q8N4C8); test: Selectivity interaction (KinomeScan (DiscoverX)) EUB0000695a MINK1; settings: at 100 nM
Chain of Misshapen-like kinase 1 (Q8N4C8 whole entry, looked up): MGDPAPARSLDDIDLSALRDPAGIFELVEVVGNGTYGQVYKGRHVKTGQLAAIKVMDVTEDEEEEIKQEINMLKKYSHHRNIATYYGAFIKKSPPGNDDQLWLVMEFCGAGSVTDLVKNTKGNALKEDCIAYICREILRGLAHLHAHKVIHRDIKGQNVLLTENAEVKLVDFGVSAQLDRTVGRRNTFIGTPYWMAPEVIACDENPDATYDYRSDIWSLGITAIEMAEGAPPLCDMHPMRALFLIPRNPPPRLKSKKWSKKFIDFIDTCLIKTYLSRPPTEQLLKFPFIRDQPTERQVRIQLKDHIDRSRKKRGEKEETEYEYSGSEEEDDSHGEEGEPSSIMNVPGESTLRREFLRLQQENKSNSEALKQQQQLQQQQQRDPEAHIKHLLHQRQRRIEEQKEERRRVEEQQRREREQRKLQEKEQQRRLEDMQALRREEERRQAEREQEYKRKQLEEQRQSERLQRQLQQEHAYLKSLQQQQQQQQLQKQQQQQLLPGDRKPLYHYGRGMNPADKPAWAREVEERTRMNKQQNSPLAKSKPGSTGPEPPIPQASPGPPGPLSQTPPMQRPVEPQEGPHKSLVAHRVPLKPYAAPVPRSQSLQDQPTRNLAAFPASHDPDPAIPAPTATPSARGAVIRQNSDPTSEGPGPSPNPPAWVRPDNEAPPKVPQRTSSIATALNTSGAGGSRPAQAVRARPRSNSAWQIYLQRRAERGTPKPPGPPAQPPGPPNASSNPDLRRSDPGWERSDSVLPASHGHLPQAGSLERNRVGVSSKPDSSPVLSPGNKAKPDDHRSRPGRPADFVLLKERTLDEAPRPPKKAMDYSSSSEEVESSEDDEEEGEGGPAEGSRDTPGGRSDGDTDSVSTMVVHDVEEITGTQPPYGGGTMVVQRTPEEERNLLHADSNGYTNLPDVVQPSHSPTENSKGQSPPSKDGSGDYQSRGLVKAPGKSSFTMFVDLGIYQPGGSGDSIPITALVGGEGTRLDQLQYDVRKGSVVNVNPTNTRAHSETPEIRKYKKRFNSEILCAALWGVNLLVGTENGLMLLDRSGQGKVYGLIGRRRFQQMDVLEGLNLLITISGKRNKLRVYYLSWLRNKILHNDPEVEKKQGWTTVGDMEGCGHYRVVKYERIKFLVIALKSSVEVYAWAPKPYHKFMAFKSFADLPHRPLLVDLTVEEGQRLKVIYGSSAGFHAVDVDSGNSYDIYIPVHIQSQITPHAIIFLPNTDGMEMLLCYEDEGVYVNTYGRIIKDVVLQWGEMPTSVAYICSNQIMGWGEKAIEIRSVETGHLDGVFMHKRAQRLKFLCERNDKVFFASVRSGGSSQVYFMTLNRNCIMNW

[2] = molecular target: T1, Ephrin type-A receptor 8 (Homo sapiens) (UniProt P29322); settings: at 10 µM
T1 sequence (whole entry): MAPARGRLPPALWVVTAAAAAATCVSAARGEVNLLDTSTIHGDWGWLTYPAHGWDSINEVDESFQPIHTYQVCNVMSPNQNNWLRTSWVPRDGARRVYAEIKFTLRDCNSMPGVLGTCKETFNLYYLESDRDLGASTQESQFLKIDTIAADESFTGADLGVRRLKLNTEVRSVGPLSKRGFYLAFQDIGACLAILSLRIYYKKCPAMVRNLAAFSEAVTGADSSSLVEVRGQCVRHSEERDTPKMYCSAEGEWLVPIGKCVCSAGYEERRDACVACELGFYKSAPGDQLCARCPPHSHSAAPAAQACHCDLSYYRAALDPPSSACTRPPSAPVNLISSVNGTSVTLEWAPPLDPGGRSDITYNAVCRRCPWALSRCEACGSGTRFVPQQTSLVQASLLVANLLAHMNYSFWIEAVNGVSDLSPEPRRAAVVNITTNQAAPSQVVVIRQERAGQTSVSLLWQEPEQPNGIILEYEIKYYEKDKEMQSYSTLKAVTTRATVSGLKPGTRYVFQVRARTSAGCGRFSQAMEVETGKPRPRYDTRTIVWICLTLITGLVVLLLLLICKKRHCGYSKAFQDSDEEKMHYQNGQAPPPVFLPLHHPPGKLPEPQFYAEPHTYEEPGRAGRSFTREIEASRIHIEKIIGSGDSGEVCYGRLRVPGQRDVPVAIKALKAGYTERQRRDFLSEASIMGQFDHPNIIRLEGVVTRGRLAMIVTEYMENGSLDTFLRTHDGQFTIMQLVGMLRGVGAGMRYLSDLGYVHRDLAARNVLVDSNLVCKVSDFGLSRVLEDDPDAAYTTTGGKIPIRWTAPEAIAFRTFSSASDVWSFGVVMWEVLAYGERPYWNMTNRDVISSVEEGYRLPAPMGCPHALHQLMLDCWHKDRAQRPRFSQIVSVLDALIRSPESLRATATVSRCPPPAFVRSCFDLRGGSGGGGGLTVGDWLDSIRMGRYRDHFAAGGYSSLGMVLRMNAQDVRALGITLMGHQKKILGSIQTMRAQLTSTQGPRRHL

[3] = molecular target: G protein-coupled receptor kinase 4 (Homo sapiens) (UniProt P32298); test: Selectivity interaction (KinomeScan (DiscoverX)) EUB0000595a GRK4; settings: at 10 µM
Chain of G protein-coupled receptor kinase 4 (Homo sapiens) (P32298 whole entry, looked up): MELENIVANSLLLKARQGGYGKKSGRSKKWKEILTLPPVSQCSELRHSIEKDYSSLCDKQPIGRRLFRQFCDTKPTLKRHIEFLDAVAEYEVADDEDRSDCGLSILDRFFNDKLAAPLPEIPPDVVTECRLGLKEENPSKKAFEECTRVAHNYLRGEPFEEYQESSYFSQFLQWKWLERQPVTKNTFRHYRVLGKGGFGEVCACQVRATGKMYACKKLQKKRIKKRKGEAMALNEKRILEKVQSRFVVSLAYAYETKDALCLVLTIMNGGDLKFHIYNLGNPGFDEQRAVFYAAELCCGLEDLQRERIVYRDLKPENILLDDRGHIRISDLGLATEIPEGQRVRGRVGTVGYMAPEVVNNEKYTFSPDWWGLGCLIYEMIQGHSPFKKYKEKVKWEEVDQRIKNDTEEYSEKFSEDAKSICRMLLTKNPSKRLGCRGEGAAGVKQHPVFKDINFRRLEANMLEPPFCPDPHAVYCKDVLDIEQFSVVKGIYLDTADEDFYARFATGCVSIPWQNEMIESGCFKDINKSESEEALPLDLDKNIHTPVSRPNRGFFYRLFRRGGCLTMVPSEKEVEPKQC

[4] = molecular target: T2, Serine/threonine-protein kinase 36 (Homo sapiens) (UniProt Q9NRP7); test: Selectivity interaction (KinomeScan (DiscoverX)) EUB0000607a STK36; settings: at 10 µM
T2 sequence (whole entry): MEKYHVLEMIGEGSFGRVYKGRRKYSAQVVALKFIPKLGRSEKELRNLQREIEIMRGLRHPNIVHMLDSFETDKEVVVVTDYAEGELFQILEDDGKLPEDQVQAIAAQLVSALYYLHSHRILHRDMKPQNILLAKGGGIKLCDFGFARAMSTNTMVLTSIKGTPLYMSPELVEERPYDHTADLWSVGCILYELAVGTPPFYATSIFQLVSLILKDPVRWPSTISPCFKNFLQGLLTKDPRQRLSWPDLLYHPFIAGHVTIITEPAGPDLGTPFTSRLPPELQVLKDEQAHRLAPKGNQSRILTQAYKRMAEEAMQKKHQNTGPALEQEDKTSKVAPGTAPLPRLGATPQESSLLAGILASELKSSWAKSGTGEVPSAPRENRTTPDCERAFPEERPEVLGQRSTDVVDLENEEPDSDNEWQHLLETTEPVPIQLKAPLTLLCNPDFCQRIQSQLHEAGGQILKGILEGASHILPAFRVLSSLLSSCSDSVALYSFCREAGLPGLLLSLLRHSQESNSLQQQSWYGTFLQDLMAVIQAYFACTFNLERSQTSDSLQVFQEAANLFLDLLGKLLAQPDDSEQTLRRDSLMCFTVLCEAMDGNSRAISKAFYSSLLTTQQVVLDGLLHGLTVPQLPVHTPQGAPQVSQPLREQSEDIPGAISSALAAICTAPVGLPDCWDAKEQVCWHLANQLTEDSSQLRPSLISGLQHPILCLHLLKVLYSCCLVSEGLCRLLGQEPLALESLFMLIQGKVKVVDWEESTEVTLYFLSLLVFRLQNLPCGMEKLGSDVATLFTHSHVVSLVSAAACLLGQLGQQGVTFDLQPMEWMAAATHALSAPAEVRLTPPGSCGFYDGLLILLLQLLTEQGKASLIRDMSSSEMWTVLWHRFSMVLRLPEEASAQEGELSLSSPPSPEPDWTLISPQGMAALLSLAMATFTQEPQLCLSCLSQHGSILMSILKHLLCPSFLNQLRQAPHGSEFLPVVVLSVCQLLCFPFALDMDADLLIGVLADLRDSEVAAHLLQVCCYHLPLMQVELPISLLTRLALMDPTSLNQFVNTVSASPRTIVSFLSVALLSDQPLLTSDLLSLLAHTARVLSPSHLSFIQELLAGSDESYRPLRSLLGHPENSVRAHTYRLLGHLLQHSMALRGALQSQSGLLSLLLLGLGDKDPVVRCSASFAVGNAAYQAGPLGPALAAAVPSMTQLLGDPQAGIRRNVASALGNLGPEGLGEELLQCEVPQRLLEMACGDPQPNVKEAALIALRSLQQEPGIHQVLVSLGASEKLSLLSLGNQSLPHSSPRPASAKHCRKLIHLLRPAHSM

Chain of Substance-P receptor (Homo sapiens) (P25103 whole entry): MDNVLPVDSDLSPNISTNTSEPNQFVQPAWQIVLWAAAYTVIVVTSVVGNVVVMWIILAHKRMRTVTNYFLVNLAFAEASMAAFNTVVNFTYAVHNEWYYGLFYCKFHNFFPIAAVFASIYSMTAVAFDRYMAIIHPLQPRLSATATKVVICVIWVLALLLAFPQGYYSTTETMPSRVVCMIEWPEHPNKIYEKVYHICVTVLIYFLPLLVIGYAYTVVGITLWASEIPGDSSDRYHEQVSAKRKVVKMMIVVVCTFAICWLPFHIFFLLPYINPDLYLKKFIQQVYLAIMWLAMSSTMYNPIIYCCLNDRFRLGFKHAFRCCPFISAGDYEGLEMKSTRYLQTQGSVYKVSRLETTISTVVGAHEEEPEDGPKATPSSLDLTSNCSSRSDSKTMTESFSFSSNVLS

pXC50 [1]: < 4.4 M
Structure (SMILES): CCn1c(-c2nc3cc(C(=O)N4CCCC(N)C4)ccc3n2C)cc2ccccc21 (stereo not given)

Structure (SMILES): Cc1cc(F)c(C(=O)Nc2cccc(-c3nncn3C(C)C)n2)cc1-n1cnc(C2CC2)c1
% of control (Misshapen-like kinase 1): 83%

% of control [2]: 100%
Structure (SMILES): CCN(CC)CCCCNc1ncc2cc(-c3cc(OC)cc(OC)c3)c(NC(=O)NC(C)(C)C)nc2n1

Structure (SMILES): COCC(=O)NC/C=C/c1ccc2ncnc(Nc3ccc(Oc4ccc(C)nc4)c(C)c3)c2c1 [CP-724714]
% of control [3]: 100%

Structure (SMILES): CNC(=O)Nc1ccc(-c2nc(N3CC4CCC(C3)O4)c3cnn(C4CCC5(CC4)OCCO5)c3n2)cc1
% of control [4]: 96%
